How the values were obtained:
p38alpha = target: T1, p38alpha (Homo sapiens, UniProt Q16539); experiment: P38alpha enzyme inhibition assay (Alphascreen kinase activity assay); type: biochemical; settings: IC50 classes; 2 hours preincubation at 25° C., 250 μM ATP; read-out: p38α inhibition
T1 construct: purchased Invitrogen PV3304
In short: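 p38alpha with 0.3 μg/ml ATF-2 fusion protein in HEPES pH 7.5 buffer (10 mM MgCl2, 2 mM DTT, 1% DMSO); compounds preincubated 2 h at 25° C, then 250 μM ATP added for 1 h at 25° C. Phospho-ATF2 detected by AlphaScreen luminescence with anti-phospho-ATF2 antibody; IC50 from concentration-response curves.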

[1] = tested on: Peripheral Blood Mononuclear Cells (PBMCs); experiment: LPS-stimulated PBMC TNFα release assay; type: cell-based; settings: IC50 classes; human PBMC, LPS 10 ng/ml, 18 h; read-out: LPS-stimulated PBMC TNFα release inhibition
In short: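 Human PBMCs from healthy donors, adhered 3 h in serum-free RPMI, received compound for 1 h in 1% FBS medium before 10 ng/ml LPS for 18 h. Supernatant TNFα was measured by MSD; IC50 from percentage inhibition of control release, at least three separate experiments.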

BEAS-2B cells = experiment: TNFα-stimulated BEAS-2B IL-8 release assay; type: cell-based; settings: Homo sapiens, IC50 classes, TNF-α 10 ng/ml, 18 h, read-out: TNFα-stimulated BEAS-2B IL-8 release inhibition
In short: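 BEAS-2B cells at 80-90% confluence were pre-incubated 1 h with p38 inhibitors, then stimulated 18 h at 37 °C with TNF-α (10 ng/ml). Supernatant IL-8 was measured by ELISA. IC50 was taken from sigmoidal variable-slope fits of % inhibition of control release.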

T1 sequence (Q16539 whole entry): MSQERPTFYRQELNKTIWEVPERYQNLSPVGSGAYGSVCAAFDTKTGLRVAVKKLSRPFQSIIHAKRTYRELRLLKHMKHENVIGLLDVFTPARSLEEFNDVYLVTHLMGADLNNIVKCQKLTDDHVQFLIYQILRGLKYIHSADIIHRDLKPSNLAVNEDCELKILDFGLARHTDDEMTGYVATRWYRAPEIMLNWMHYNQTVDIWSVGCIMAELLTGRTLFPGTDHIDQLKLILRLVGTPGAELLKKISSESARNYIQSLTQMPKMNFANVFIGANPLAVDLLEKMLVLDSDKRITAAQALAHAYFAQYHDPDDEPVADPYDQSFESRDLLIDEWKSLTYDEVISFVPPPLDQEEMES

| SMILES | IC50 (p38alpha) | IC50 [1] | IC50 (BEAS-2B cells) |
| --- | --- | --- | --- |
| CN1CCN(C(C)(C)c2nnc3ccc(O[C@@H]4CC[C@H](NC(=O)Nc5cc(NS(C)(=O)=O)cc(C(C)(C)C)c5)c5ccccc54)cn23)CC1 [Example 62, N-{3-tert-Butyl-5-[3-((1S,4R)-4-{3-[1-methyl-1-(4-methyl-piperazin-1-yl)-ethyl]-[1,2,4]triazolo[4,3-a]pyridin-6-yloxy}-1,2,3,4-tetrahydro-naphthalen-1-yl)-ureido]-phenyl}-methanesulfonamide] | < 1 nM | > 5 nM | > 1 nM |
| CN1CC[C@H]1c1nnc2ccc(O[C@@H]3CC[C@H](NC(=O)Nc4cc(NS(C)(=O)=O)cc(C(C)(C)C)c4)c4ccccc43)cn12 [Example 63, N-[3-tert-Butyl-5-(3-{(1S,4R)-4-[3-((S)-1-methyl-azetidin-2-yl)-[1,2,4]triazolo[4,3-a]pyridin-6-yloxy]-1,2,3,4-tetrahydro-naphthalen-1-yl}-ureido)-phenyl]-methanesulfonamide] | 1 to 10 nM | > 5 nM | > 1 nM |
| CN1CCC[C@@]1(C)c1nnc2ccc(O[C@@H]3CC[C@H](NC(=O)Nc4cc(N5CCNCC5)cc(C(C)(C)C)c4)c4ccccc43)cn12 [Example 64, 1-(3-tert-Butyl-5-piperazin-1-yl-phenyl)-3-{(1S,4R)-4-[3-((S)-1,2-dimethyl-pyrrolidin-2-yl)-[1,2,4]triazolo[4,3-a]pyridin-6-yloxy]-1,2,3,4-tetrahydro-naphthalen-1-yl}-urea] | < 1 nM | > 5 nM | > 1 nM |
| CN(C)Cc1cc(NC(=O)N[C@H]2CC[C@@H](Oc3ccc4nnc([C@]5(C)CCCN5C)n4c3)c3ccccc32)cc(C(C)(C)C)c1 [Example 65, 1-(3-tert-Butyl-5-dimethylaminomethyl-phenyl)-3-{(1S,4R)-4-[3-((S)-1,2-dimethyl-pyrrolidin-2-yl)-[1,2,4]triazolo[4,3-a]pyridin-6-yloxy]-1,2,3,4-tetrahydro-naphthalen-1-yl}-urea] | < 1 nM | 1 to 5 nM | 0.3 to 1 nM |
| C[C@H]1CCCCN1c1nnc2ccc(O[C@@H]3CC[C@H](NC(=O)Nc4cc(CN(C)C)cc(C(C)(C)C)c4)c4ccccc43)cn12 [Example 66, 1-(3-tert-Butyl-5-dimethylaminomethyl-phenyl)-3-{(1S,4R)-4-[3-((S)-2-methyl-piperidin-1-yl)-[1,2,4]triazolo[4,3-a]pyridin-6-yloxy]-1,2,3,4-tetrahydro-naphthalen-1-yl}-urea] | < 1 nM | 1 to 5 nM | < 0.3 nM |
| CN(CCO)Cc1cc(NC(=O)N[C@H]2CC[C@@H](Oc3ccc4nnc([C@]5(C)CCCN5C)n4c3)c3ccccc32)cc(C(C)(C)C)c1 [Example 67, 1-(3-tert-Butyl-5-{[(2-hydroxy-ethyl)-methyl-amino]-methyl}-phenyl)-3-{(1S,4R)-4-[3-((S)-1,2-dimethyl-pyrrolidin-2-yl)-[1,2,4]triazolo[4,3-a]pyridin-6-yloxy]-1,2,3,4-tetrahydro-naphthalen-1-yl}-urea] | < 1 nM | > 5 nM | 0.3 to 1 nM |
| C[C@H]1CCCCN1c1nnc2ccc(O[C@@H]3CC[C@H](NC(=O)Nc4cc(CN(C)CCO)cc(C(C)(C)C)c4)c4ccccc43)cn12 [Example 68, 1-(3-tert-Butyl-5-{[(2-hydroxy-ethyl)-methyl-amino]-methyl}-phenyl)-3-{(1S,4R)-4-[3-((S)-2-methyl-piperidin-1-yl)-[1,2,4]triazolo[4,3-a]pyridin-6-yloxy]-1,2,3,4-tetrahydro-naphthalen-1-yl}-urea] | < 1 nM | > 5 nM | > 1 nM |
| CN(C)CCOCc1cc(NC(=O)N[C@H]2CC[C@@H](Oc3ccc4nnc([C@]5(C)CCCN5C)n4c3)c3ccccc32)cc(C(C)(C)C)c1 [Example 69] | < 1 nM | > 5 nM | < 0.3 nM |
| C[C@H]1CCCCN1c1nnc2ccc(O[C@@H]3CC[C@H](NC(=O)Nc4cc(COCCN(C)C)cc(C(C)(C)C)c4)c4ccccc43)cn12 [Example 70, 1-[3-tert-Butyl-5-(2-dimethylamino-ethoxymethyl)-phenyl]-3-{(1S,4R)-4-[3-((S)-2-methyl-piperidin-1-yl)-[1,2,4]triazolo[4,3-a]pyridin-6-yloxy]-1,2,3,4-tetrahydro-naphthalen-1-yl}-urea] | < 1 nM | > 5 nM | 0.3 to 1 nM |
| CN1CCC[C@@]1(C)c1nnc2ccc(O[C@@H]3CC[C@H](NC(=O)Nc4cc(COCCN5CCCCC5)cc(C(C)(C)C)c4)c4ccccc43)cn12 [Example 71, 1-[3-tert-Butyl-5-(2-piperidin-1-yl-ethoxymethyl)-phenyl]-3-{(1S,4R)-4-[3-((S)-1,2-dimethyl-pyrrolidin-2-yl)-[1,2,4]triazolo[4,3-a]pyridin-6-yloxy]-1,2,3,4-tetrahydro-naphthalen-1-yl}-urea] | < 1 nM | 1 to 5 nM | 0.3 to 1 nM |
| CN1CCC[C@@]1(C)c1nnc2ccc(O[C@@H]3CC[C@H](NC(=O)Nc4cc(COCCN5CCOCC5)cc(C(C)(C)C)c4)c4ccccc43)cn12 [Example 72, 1-[3-tert-Butyl-5-(2-morpholin-4-yl-ethoxymethyl)-phenyl]-3-{(1S,4R)-4-[3-((S)-1,2-dimethyl-pyrrolidin-2-yl)-[1,2,4]triazolo[4,3-a]pyridin-6-yloxy]-1,2,3,4-tetrahydro-naphthalen-1-yl}-urea] | < 1 nM | > 5 nM | 0.3 to 1 nM |
| CN1CCC[C@@]1(C)c1nnc2ccc(O[C@@H]3CC[C@H](NC(=O)Nc4cc(C(C)(C)C)ccc4CN4CCOCC4)c4ccccc43)cn12 [Example 73, 1-(5-tert-Butyl-2-morpholin-4-ylmethyl-phenyl)-3-{(1S,4R)-4-[3-((S)-1,2-dimethyl-pyrrolidin-2-yl)-[1,2,4]triazolo[4,3-a]pyridin-6-yloxy]-1,2,3,4-tetrahydro-naphthalen-1-yl}-urea] | 1 to 10 nM | > 5 nM | 0.3 to 1 nM |
| C[C@H]1CCCCN1c1nnc2ccc(O[C@@H]3CC[C@H](NC(=O)Nc4cc(C(C)(C)C)ccc4CN4CCOCC4)c4ccccc43)cn12 [Example 74, 1-(5-tert-Butyl-2-morpholin-4-ylmethyl-phenyl)-3-{(1S,4R)-4-[3-((S)-2-methyl-piperidin-1-yl)-[1,2,4]triazolo[4,3-a]pyridin-6-yloxy]-1,2,3,4-tetrahydro-naphthalen-1-yl}-urea] | 1 to 10 nM | > 5 nM | 0.3 to 1 nM |
| CN1CCC[C@@]1(C)c1nnc2ccc(O[C@@H]3CC[C@H](NC(=O)Nc4cc(CN(CCO)CCO)cc(C(C)(C)C)c4)c4ccccc43)cn12 [Example 75, 1-(3-{[Bis-(2-hydroxy-ethyl)-amino]-methyl}-5-tert-butyl-phenyl)-3-{(1S,4R)-4-[3-((S)-1,2-dimethyl-pyrrolidin-2-yl)-[1,2,4]triazolo[4,3-a]pyridin-6-yloxy]-1,2,3,4-tetrahydro-naphthalen-1-yl}-urea] | < 1 nM | 1 to 5 nM | > 1 nM |
| C[C@H]1CCCCN1c1nnc2ccc(O[C@@H]3CC[C@H](NC(=O)Nc4cc(CN(CCO)CCO)cc(C(C)(C)C)c4)c4ccccc43)cn12 [Example 76, 1-(3-{[Bis-(2-hydroxy-ethyl)-amino]-methyl}-5-tert-butyl-phenyl)-3-{(1S,4R)-4-[3-((S)-2-methyl-piperidin-1-yl)-[1,2,4]triazolo[4,3-a]pyridin-6-yloxy]-1,2,3,4-tetrahydro-naphthalen-1-yl}-urea] | < 1 nM | 1 to 5 nM | > 1 nM |

From US10100050B2 (CHIESI FARMACEUTICI S.P.A., priority 2015, dated 2018)
